Test system: TEAD transcriptional activity
Test: Inhibition of TEAD-driven transcription (8×GTIIC-luciferase reporter assay)
Type: cell-based
Details: 40 μM at 24 hour treatment
Experimental: The compounds were tested for their ability to inhibit TEAD-driven transcription.
8×GTIIC-luciferase plasmid, containing 8 TEAD binding sites (ACATTCCA), was obtained from Addgene (Addgene #34615). MDA-MB-231 cells were transfected with 8×GTIIC-luciferase and stable clone was obtained using neomycin selection. The TEAD transcriptional activity was monitored by assessing the luciferase activity using luciferase assay system (Promega). Each data point represents mean±standard deviation.

Compound	inhibition at 40 µM [%]
C=CC(=O)N1CC[C@H](Nc2cccc(N3CCN(C)CC3)c2)C1 [Compound I-49, (S)-1-(3-((3-(4-methylpiperazin-1-yl)phenyl)amino)pyrrolidin-1-yl)prop-2-en-1-one]	50
CCC(=O)N1CCC(Nc2cccc(C(F)(F)F)c2)C1 (stereo not shown) [Compound I-27, 1-(3-((3-(trifluoromethyl)phenyl)amino)pyrrolidin-1-yl)propan-1-one]	70
C=CC(=O)N1CC[C@H](Nc2cc(C(F)(F)F)ccc2OC)C1 [Compound I-56, (S)-1-(3-((2-methoxy-5-(trifluoromethyl)phenyl)amino)pyrrolidin-1-yl)prop-2-en-1-one]	50
C=CC(=O)N1CC[C@H](N(C)c2cccc(C(F)(F)F)c2)C1 [Compound I-48, (S)-1-(3-(methyl(3-(trifluoromethyl)phenyl)amino)pyrrolidin-1-yl)prop-2-en-1-one]	50
O=C(CCl)N1CCC(Nc2cccc(C(F)(F)F)c2)C1 (stereo not shown) [Compound I-10, 2-chloro-1-(3-((3-(trifluoromethyl)phenyl)amino)pyrrolidin-1-yl)ethan-1-one]	90
C=CC(=O)N1CC[C@H](Nc2cc(C(F)(F)F)ccc2Cl)C1 [Compound I-51, (S)-1-(3-((2-chloro-5-(trifluoromethyl)phenyl)amino)pyrrolidin-1-yl)prop-2-en-1-one]	90
O=C(CCl)N1CCC[C@@H](Nc2cccc(C(F)(F)F)c2)C1 [Compound I-2, (R)-2-chloro-1-(3-((3-(trifluoromethyl)phenyl)amino)piperidin-1-yl)ethan-1-one]	50
C=CC(=O)N1CCC[C@H](Nc2cccc(C(F)(F)F)c2)C1 [Compound I-15, (S)-1-(3-((3-(trifluoromethyl)phenyl)amino)piperidin-1-yl)prop-2-en-1-one]	70
O=C(CCl)N1CC(c2cccc(C(F)(F)F)c2)c2ccccc21 (stereo not shown) [Compound I-35, 2-chloro-1-(3-(3-(trifluoromethyl)phenyl)indolin-1-yl)ethan-1-one]	70
C=CC(=O)N1CC[C@H](Nc2cccc(C(F)(F)F)c2C)C1 [Compound I-57, (S)-1-(3-((2-methyl-3-(trifluoromethyl)phenyl)amino)pyrrolidin-1-yl)prop-2-en-1-one]	70
C=CC(=O)N1CC[C@H](Nc2cc(C(F)(F)F)cc(C(F)(F)F)c2)C1 [Compound I-50, (S)-1-(3-((3,5-bis(trifluoromethyl)phenyl)amino)pyrrolidin-1-yl)prop-2-en-1-one]	90
C=CC(=O)N1CC[C@H](Nc2cccc(C(F)(F)F)c2N)C1 [Compound I-65, (S)-1-(3-((2-amino-3-(trifluoromethyl)phenyl)amino)pyrrolidin-1-yl)prop-2-en-1-one]	90
C=CC(=O)N1CC[C@H](Nc2cc(Cl)cc(C(F)(F)F)c2)C1 [Compound I-52, (S)-1-(3-((3-chloro-5-(trifluoromethyl)phenyl)amino)pyrrolidin-1-yl)prop-2-en-1-one]	70
O=C(CCl)N1CCC[C@@H](Oc2cccc(C(F)(F)F)c2)C1 [Compound I-20, (R)-2-chloro-1-(3-(3-(trifluoromethyl)phenoxy)piperidin-1-yl)ethan-1-one]	70
C=CC(=O)N1CC[C@H](Nc2cncc(C(F)(F)F)c2)C1 [Compound I-61, (S)-1-(3-((5-(trifluoromethyl)pyridin-3-yl)amino)pyrrolidin-1-yl)prop-2-en-1-one]	50
C=CC(=O)N1CC[C@H](Oc2cccc(C(F)(F)F)c2)C1 [Compound I-58, (S)-1-(3-(3-(trifluoromethyl)phenoxy)pyrrolidin-1-yl)prop-2-en-1-one]	70
CN(C)C/C=C/C(=O)N1CC[C@H](Nc2cccc(C(F)(F)F)c2)C1 [Compound I-47, (S,E)-4-(dimethylamino)-1-(3-((3-(trifluoromethyl)phenyl)amino)pyrrolidin-1-yl)but-2-en-1-one]	50
C#Cc1cc(N[C@@H]2CCCN(C(=O)CCl)C2)cc(C(F)(F)F)c1 [Compound I-18]	50
O=C(CCl)Nc1ccccc1Nc1cccc(C(F)(F)F)c1 [Compound I-31, 2-chloro-N-(2-((3-(trifluoromethyl)phenyl)amino)phenyl)acetamide]	90
C=CC(=O)N1CCC[C@@H](Oc2cccc(C(F)(F)F)c2)C1 [Compound I-21]	70
C=CC(=O)N1CCC(Nc2cccc(C(F)(F)F)c2)C1 (stereo not shown) [Compound I-11, 1-(3-((3-(trifluoromethyl)phenyl)amino)pyrrolidin-1-yl)prop-2-en-1-one]	90
O=C(CCl)N1CCC[C@H](Nc2cccc(C(F)(F)F)c2)C1 [Compound I-14, (S)-2-chloro-1-(3-((3-(trifluoromethyl)phenyl)amino)piperidin-1-yl)ethan-1-one]	70
O=C(CCl)N1CCCC(Nc2cccc(C(F)(F)F)c2)C1 (stereo not shown) [Compound I-19, 2-chloro-1-(3-((3-(trifluoromethyl)phenyl)amino)piperidin-1-yl)ethan-1-one]	50
C=CC(=O)N1C[C@@H](O)[C@H](Nc2cccc(C(F)(F)F)c2)C1 [Compound I-62, 1-((3R,4R)-3-hydroxy-4-((3-(trifluoromethyl)phenyl)amino)pyrrolidin-1-yl)prop-2-en-1-one]	70
C=CC(=O)N1CCC[C@@H](Nc2cccc(C(F)(F)F)c2)C1 [Compound I-1, (R)-1-(3-((3-(trifluoromethyl)phenyl)amino)piperidin-1-yl)prop-2-en-1-one]	50

From patent publication US20220402869A1, “TRANSCRIPTIONAL ENHANCED ASSOCIATE DOMAIN (TEAD) TRANSCRIPTION FACTOR INHIBITORS AND USES THEREOF” (Dana-Farber Cancer Institute, Inc., priority 2018, published 2022)
